In patent US9878982B2, “Pyridine derivatives and anti-mycobacterial use thereof” (priority 2014, dated 2018):
Converted amounts (≈) assume the structure as drawn.

How the values were obtained:
[1] = tested on: rifampicin-resistant M. tuberculosis strain (rRMP); experiment: microbe, parasite or virus in culture; format: cell-based, Mycobacterium tuberculosis; conditions: for MIC: Mycobacterium tuberculosis, read-out: MABA MIC vs. rRMP, rifampicin-resistant M. tuberculosis strain; for MIC / MABA MIC vs. rRMP: two values per compound; for MABA MIC vs. rRMP: rifampicin-resistant M. tuberculosis strain
[2] = tested on: isoniazide-resistant Mycobacterium tuberculosis strains (rINH); experiment: microbe, parasite or virus in culture; format: cell-based; conditions: for MIC: Mycobacterium tuberculosis, read-out: MABA MIC vs. rINH, isoniazide-resistant strain; for MIC / MABA MIC vs. rINH: two values per compound; for MABA MIC vs. rINH: isoniazide-resistant strain

Row | Compound | inhibitory activity against rifampin-resistant strain (in words) [1] | MIC [1] | inhibitory activity against isoniazid-resistant strain (in words) [2] | MIC [2] | MABA MIC vs. rINH [2] | MABA MIC vs. rRMP [1]
1 | COc1ncc(-c2ccc(Cl)cc2)cc1C(c1ccccc1)C(O)(CCN(C)C)c1cccc2ccccc12 (stereo not drawn) [Compound 115, 1-(5-(4-chlorophenyl)-2-methoxypyridin-3-yl)-4-(dimethylamino)-2-(naphthalen-1-yl)-1-phenylbutan-2-ol] | comparable to that of the marketed anti-TB drug, Bedaquiline | 0.18 µM (≈ 0.0967 µg/mL) | comparable to that of the marketed anti-TB drug, Bedaquiline | 0.11 µM (≈ 0.0591 µg/mL) | 0.12 µM | –
2 | COc1nc2ccc(Br)cc2cc1[C@@H](c1ccccc1)[C@@](O)(CCN(C)C)c1cccc2ccccc12 [Bedaquiline, reference compound] | – | 0.12 µM (≈ 0.0667 µg/mL) | – | 0.07 µM (≈ 0.0389 µg/mL) | 0.09 µM | 0.13 µM
3 | COc1ncc(-c2ccc(Br)cc2)cc1C(c1ccccc1)C(O)(CCN(C)C)c1cccc2ccccc12 (stereo not drawn) [Compound 133, 1-(5-(4-bromophenyl)-2-methoxypyridin-3-yl)-4-(dimethylamino)-2-(naphthalen-1-yl)-1-phenylbutan-2-ol] | comparable to that of the marketed anti-TB drug, Bedaquiline | 0.24 µM (≈ 0.14 µg/mL) | comparable to that of the marketed anti-TB drug, Bedaquiline | 0.22 µM (≈ 0.128 µg/mL) | 0.12 µM | 0.34 µM
4 | CO[C@H]1/C=C/O[C@@]2(C)Oc3c(C)c(O)c4c(O)c(c(/C=N/N5CCN(C)CC5)c(O)c4c3C2=O)NC(=O)/C(C)=C\C=C\[C@H](C)[C@H](O)[C@@H](C)[C@@H](O)[C@@H](C)[C@H](OC(C)=O)[C@@H]1C [rifampin, reference compound] | – | > 4 µM | – | < 0.016 µM | – | –
5 | NNC(=O)c1ccncc1 [isoniazide, isoniazid, reference compound] | – | 0.83 µM (≈ 0.114 µg/mL) | – | > 8 µM | – | 0.65 µM
6 | COc1ncc(-c2ccccc2)cc1C(c1ccccc1)C(O)(CCN(C)C)c1cccc2ccccc12 (stereo not drawn) [Compound 9, 4-(dimethylamino)-1-(2-methoxy-5-phenylpyridin-3-yl)-2-(naphthalen-1-yl)-1-phenylbutan-2-ol] | – | 0.9 µM (≈ 0.452 µg/mL) | – | 0.47 µM (≈ 0.236 µg/mL) | 0.44 µM | 0.91 µM
